These molecules were tested against Factor D (Homo sapiens (Human), UniProt P00746) (assay: biochemical). Details: read-out: IC50.
Chain of Factor D (P00746 26-253): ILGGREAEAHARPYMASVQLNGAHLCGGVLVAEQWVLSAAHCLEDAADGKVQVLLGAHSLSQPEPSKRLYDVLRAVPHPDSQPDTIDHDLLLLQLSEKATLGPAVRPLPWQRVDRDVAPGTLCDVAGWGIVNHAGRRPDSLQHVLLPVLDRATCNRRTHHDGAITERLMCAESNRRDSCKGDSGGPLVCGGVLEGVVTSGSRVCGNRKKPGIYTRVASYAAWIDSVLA
Type: biochemical
For `Cc1c(Cl)cccc1CNC(=O)[C@@H]1C[C@H](N)CN1C(=O)Nc1cn(C(N)=O)c2ccccc12` [Example 57, (2S,4S)-4-Amino-pyrrolidine-1,2-dicarboxylic acid 1-[(1-carbamoyl-1H-indol-3-yl)-amide] 2-(3-chloro-2-methyl-benzylamide)], the IC50 was 1.35 µM.
`Cc1ccc(Cl)cc1CNC(=O)[C@@H]1C[C@H](N)CN1C(=O)Nc1cn(C(N)=O)c2ccccc12` [Example 58, (2S,4S)-4-Amino-pyrrolidine-1,2-dicarboxylic acid 1-[(1-carbamoyl-1H-indol-3-yl)-amide] 2-(5-chloro-2-methyl-benzylamide)] gave an IC50 of 0.35 µM.
Work on `Cc1ccc(CNC(=O)[C@@H]2C[C@H](N)CN2C(=O)Nc2cn(C(N)=O)c3ccccc23)cc1Cl` [Example 59, (2S,4S)-4-Amino-pyrrolidine-1,2-dicarboxylic acid 1-[(1-carbamoyl-1H-indol-3-yl)-amide] 2-(3-chloro-4-methyl-benzylamide)] yielded an IC50 of 6.4 µM.
`NC(=O)n1cc(NC(=O)N2C[C@@H](N)C[C@H]2C(=O)NCc2cc(Cl)cc(Cl)c2)c2ccccc21` [Example 60, (2S,4S)-4-Amino-pyrrolidine-1,2-dicarboxylic acid 1-[(1-carbamoyl-1H-indol-3-yl)-amide] 2-(3,5-dichloro-benzylamide)] gave an IC50 of 0.8 µM.
With `NC(=O)n1cc(NC(=O)N2C[C@@H](N)C[C@H]2C(=O)NCc2ccc(Cl)c(Cl)c2)c2ccccc21` [Example 61, (2S,4S)-4-Amino-pyrrolidine-1,2-dicarboxylic acid 1-[(1-carbamoyl-1H-indol-3-yl)-amide] 2-(3,4-dichloro-benzylamide)] the IC50 was 7.1 µM.
`NC(=O)n1cc(NC(=O)N2C[C@@H](N)C[C@H]2C(=O)NCc2c(F)ccc(Cl)c2F)c2ccccc21` [Example 62, (2S,4S)-4-Amino-pyrrolidine-1,2-dicarboxylic acid 1-[(1-carbamoyl-1H-indol-3-yl)-amide] 2-(3-chloro-2,6-difluoro-benzylamide)] was tested, and the IC50 was 0.085 µM.
`NC(=O)n1cc(NC(=O)N2C[C@@H](N)C[C@H]2C(=O)NCc2ccc3ccccc3c2)c2ccccc21` [Example 63, (2S,4S)-4-Amino-pyrrolidine-1,2-dicarboxylic acid 1-[(1-carbamoyl-1H-indol-3-yl)-amide] 2-[(naphthalen-2-ylmethyl)-amide]] showed an IC50 of 11.4 µM.
Molecule `NC(=O)n1cc(NC(=O)N2C[C@@H](N)C[C@H]2C(=O)NCc2cccc3ccccc23)c2ccccc21` [Example 64, (2S,4S)-4-Amino-pyrrolidine-1,2-dicarboxylic acid 1-[(1-carbamoyl-1H-indol-3-yl)-amide] 2-[(naphthalen-1-ylmethyl)-amide]] has an IC50 of 22.4 µM.
`Cc1cnc(CNC(=O)[C@@H]2C[C@H](N)CN2C(=O)Nc2cn(C(N)=O)c3ccccc23)s1` [Example 65, (2S,4S)-4-Amino-pyrrolidine-1,2-dicarboxylic acid 1-[(1-carbamoyl-1H-indol-3-yl)-amide] 2-[(5-methyl-thiazol-2-ylmethyl)-amide]] was tested, and the IC50 was 13.1 µM.
`NC(=O)n1cc(NC(=O)N2C[C@@H](N)C[C@H]2C(=O)NCc2ccc(Cl)s2)c2ccccc21` [Example 66, (2S,4S)-4-Amino-pyrrolidine-1,2-dicarboxylic acid 1-[(1-carbamoyl-1H-indol-3-yl)-amide] 2-[(5-chloro-thiophen-2-ylmethyl)-amide]] was tested, and the IC50 was 0.065 µM.
`Cc1ccnc(CNC(=O)[C@@H]2C[C@H](N)CN2C(=O)Nc2cn(C(N)=O)c3ccccc23)c1` [Example 67, (2S,4S)-4-Amino-pyrrolidine-1,2-dicarboxylic acid 1-[(1-carbamoyl-1H-indol-3-yl)-amide] 2-[(4-methyl-pyridin-2-ylmethyl)-amide]] showed an IC50 of 22.2 µM.
Work on `C[C@H](NC(=O)[C@@H]1C[C@H](N)CN1C(=O)Nc1cn(C(N)=O)c2ccccc12)c1cccc(Cl)c1` [Example 68, (2S,4S)-4-Amino-pyrrolidine-1,2-dicarboxylic acid 1-[(1-carbamoyl-1H-indol-3-yl)-amide] 2-{[(S)-1-(3-chloro-phenyl)-ethyl]-amide}] yielded an IC50 of 15.1 µM.
With `C[C@@H](NC(=O)[C@@H]1C[C@H](N)CN1C(=O)Nc1cn(C(N)=O)c2ccccc12)c1cccc(Cl)c1` [Example 69, (2S,4S)-4-Amino-pyrrolidine-1,2-dicarboxylic acid 1-[(1-carbamoyl-1H-indol-3-yl)-amide] 2-{[(R)-1-(3-chloro-phenyl)-ethyl]-amide}] the IC50 was 1.05 µM.
`NC(=O)n1cc(NC(=O)N2C[C@@H](N)C[C@H]2C(=O)NC(CO)c2cc(Cl)cc(Cl)c2)c2ccccc21` (stereo partly drawn) [Example 70, (2S,4S)-4-Amino-pyrrolidine-1,2-dicarboxylic acid 1-[(1-carbamoyl-1H-indol-3-yl)-amide] 2-{[1-(3,5-dichloro-phenyl)-2-hydroxy-ethyl]-amide}] gave an IC50 of 2.58 µM.
Work on `NC(=O)n1cc(NC(=O)N2C[C@@H](N)C[C@H]2C(=O)NC(CCO)c2cccc(Cl)c2)c2ccccc21` (stereo partly drawn) [Example 71, (2S,4S)-4-Amino-pyrrolidine-1,2-dicarboxylic acid 1-[(1-carbamoyl-1H-indol-3-yl)-amide] 2-{[1-(3-chloro-phenyl)-3-hydroxy-propyl]-amide}] yielded an IC50 of 2.9 µM.
For `NC(=O)n1cc(NC(=O)N2C[C@@H](N)C[C@H]2C(=O)NC2(c3ccccc3)CC2)c2ccccc21` [Example 72, (2S,4S)-4-Amino-pyrrolidine-1,2-dicarboxylic acid 1-[(1-carbamoyl-1H-indol-3-yl)-amide] 2-[(1-phenyl-cyclopropyl)-amide]], the IC50 was 7 µM.
`NC(=O)n1cc(NC(=O)N2C[C@@H](N)C[C@H]2C(=O)NC(c2ccccc2)c2ccccc2)c2ccccc21` [Example 73, (2S,4S)-4-Amino-pyrrolidine-1,2-dicarboxylic acid 2-benzhydryl-amide 1-[(1-carbamoyl-1H-indol-3-yl)-amide]] was tested, and the IC50 was 0.325 µM.
Molecule `NC(=O)n1cc(NC(=O)N2C[C@@H](N)C[C@H]2C(=O)NCC2CCCCC2)c2ccccc21` [Example 74, (2S,4S)-4-Amino-pyrrolidine-1,2-dicarboxylic acid 1-[(1-carbamoyl-1H-indol-3-yl)-amide] 2-cyclohexylmethyl-amide] has an IC50 of 3.65 µM.
`NC(=O)n1cc(NC(=O)N2C[C@@H](N)C[C@H]2C(=O)NC[C@@H]2CCCC[C@@H]2O)c2ccccc21` [Example 76, (2S,4S)-4-Amino-pyrrolidine-1,2-dicarboxylic acid 1-[(1-carbamoyl-1H-indol-3-yl)-amide] 2-[((1S,2S)-2-hydroxy-cyclohexylmethyl)-amide]] showed an IC50 of 15.7 µM.
With `NC(=O)n1cc(NC(=O)N2C[C@@H](N)C[C@H]2C(=O)NC2CCCCC2)c2ccccc21` [Example 77, (2S,4S)-4-Amino-pyrrolidine-1,2-dicarboxylic acid 1-[(1-carbamoyl-1H-indol-3-yl)-amide] 2-cyclohexylamide] the IC50 was 14.6 µM.
Work on `NC(=O)n1cc(NC(=O)N2C[C@@H](N)C[C@H]2C(=O)NC2CCCN(c3ccccn3)C2)c2ccccc21` (stereo partly drawn) [Example 78, (2S,4S)-4-Amino-pyrrolidine-1,2-dicarboxylic acid 1-[(1-carbamoyl-1H-indol-3-yl)-amide] 2-[(3,4,5,6-tetrahydro-2H-[1,2′]bipyridinyl-3-yl)-amide]] yielded an IC50 of 10.4 µM.
Molecule `NC(=O)n1cc(NC(=O)N2C[C@@H](N)C[C@H]2C(=O)NC2CCc3ccc(Cl)cc32)c2ccccc21` (stereo partly drawn) [Example 79, (2S,4S)-4-Amino-pyrrolidine-1,2-dicarboxylic acid 1-[(1-carbamoyl-1H-indol-3-yl)-amide] 2-[(6-chloro-indan-1-yl)-amide]] has an IC50 of 6 µM.
In the case of `NC(=O)n1cc(NC(=O)N2C[C@@H](N)C[C@H]2C(=O)NC2CCOc3ccc(Cl)cc32)c2ccccc21` (stereo partly drawn) [Example 80, (2S,4S)-4-Amino-pyrrolidine-1,2-dicarboxylic acid 1-[(1-carbamoyl-1H-indol-3-yl)-amide] 2-[(6-chloro-chroman-4-yl)-amide]], the IC50 is reported as 15 µM.
Work on `NC(=O)n1cc(NC(=O)N2C[C@@H](N)C[C@H]2C(=O)NCCc2ccccc2)c2ccccc21` [Example 81, (2S,4S)-4-Amino-pyrrolidine-1,2-dicarboxylic acid 1-[(1-carbamoyl-1H-indol-3-yl)-amide] 2-(phenethyl-amide)] yielded an IC50 of 4.75 µM.
Work on `NC(=O)n1cc(NC(=O)N2C[C@@H](N)C[C@H]2C(=O)NCC(O)c2ccccc2)c2ccccc21` (stereo partly drawn) [Example 82, (2S,4S)-4-Amino-pyrrolidine-1,2-dicarboxylic acid 1-[(1-carbamoyl-1H-indol-3-yl)-amide] 2-[(2-hydroxy-2-phenyl-ethyl)-amide]] yielded an IC50 of 24.8 µM.
`NC(=O)n1cc(NC(=O)N2C[C@@H](N)C[C@H]2C(=O)N[C@@H]2C[C@H]2c2ccccc2)c2ccccc21` [Example 83] showed an IC50 of 2.25 µM.
`C[C@@H](CNC(=O)[C@@H]1C[C@H](N)CN1C(=O)Nc1cn(C(N)=O)c2ccccc12)c1ccccc1` [Example 84, (2S,4S)-4-Amino-pyrrolidine-1,2-dicarboxylic acid 1-[(1-carbamoyl-1H-indol-3-yl)-amide] 2-[((R)-2-phenyl-propyl)-amide]] gave an IC50 of 6 µM.
`C[C@H](CNC(=O)[C@@H]1C[C@H](N)CN1C(=O)Nc1cn(C(N)=O)c2ccccc12)c1ccccc1` [Example 85, (2S,4S)-4-Amino-pyrrolidine-1,2-dicarboxylic acid 1-[(1-carbamoyl-1H-indol-3-yl)-amide] 2-[((S)-2-phenyl-propyl)-amide]] gave an IC50 of 11.3 µM.
`NC(=O)n1cc(NC(=O)N2C[C@@H](N)C[C@H]2C(=O)NCCc2cccc(Cl)c2)c2ccccc21` [Example 86, (2S,4S)-4-Amino-pyrrolidine-1,2-dicarboxylic acid 1-[(1-carbamoyl-1H-indol-3-yl)-amide] 2-{[2-(3-chloro-phenyl)-ethyl]-amide}] was tested, and the IC50 was 14.3 µM.
With `NC(=O)n1cc(NC(=O)N2C[C@@H](N)C[C@H]2C(=O)NCCc2ccccc2Cl)c2ccccc21` [Example 87, (2S,4S)-4-Amino-pyrrolidine-1,2-dicarboxylic acid 1-[(1-carbamoyl-1Hindol-3-yl)-amide] 2-{[2-(2-chloro-phenyl)-ethyl]-amide}] the IC50 was 4.65 µM.
Work on `NC(=O)n1cc(NC(=O)N2C[C@@H](N)C[C@H]2C(=O)NCCc2ccccc2F)c2ccccc21` [Example 88, (2S,4S)-4-Amino-pyrrolidine-1,2-dicarboxylic acid 1-[(1-carbamoyl-1Hindol-3-yl)-amide] 2-{[2-(2-fluoro-phenyl)-ethyl]-amide}] yielded an IC50 of 6.8 µM.

From patent US9085555B2, “Complement pathway modulators and uses thereof” (priority 2011, dated 2015)
